According to PMC10077203, “Structure modification, antialgal, antiplasmodial, and toxic evaluations of a series of new marine-derived 14-membered resorcylic acid lactone derivatives” (Marine Life Science & Technology, 2021):
Like-named read-outs stand apart in the source and are kept apart here.

Assays:
[1] = system: chloroquine sensitive HB3 strain of P. falciparum; experiment: In vitro antiplasmodial assay (Pico-Green growth inhibition); format: cell-based, Plasmodium falciparum; conditions: for IC50: Plasmodium falciparum; for antiplasmodial activity against P. falciparum (in words): structure-activity discussion
Description: In vitro antiplasmodial activity was performed by culturing human erythrocytes and infecting them with P. falciparum, as reported by Trager and Jensen ([1976]). Briefly, the chloroquine sensitive HB3 strain of P. falciparum-infected O + erythrocytes was cultured in RPMI 1640 medium supplemented with 10% human serum (from O + blood) at a hematocrit of 2% erythrocytes at 37 °C with a gas mixture containing 90% N2, 5% CO2, and 5% O2. Parasites were synchronized with 5% D-sorbitol (Lambros and Vanderberg [1979]). P. falciparum growth inhibition bioassays were performed with the procedure as described by Corbett et al. ([2004]), which used Pico-Green, a double stranded-DNA fluorescent dye to test the effect of compounds.

N. laevissima = experiment: Diatom growth inhibition assay (antialgal activity); format: cell-based, Navicula laevissima; conditions: 48 h, read-out: EC50 N. laevissima
Description: (§1) The antialgal activity against the microalgae P. tricornutum Bohlin, C. vulgaris, C. socialis, N. laevissima, and N. exigua was evaluated by the method of Ortlepp et al. ([2008]). Briefly, the microalgae were grown in sterilized BG11 medium under light intensity of 2500 lx and 12 h: 12 h light: dark cycle at temperature of 20 ℃. The microalgae were grown to reach the logarithmic phase (approximately 5 × 10^5 cells/ml), which were used for microalgae growth inhibition assay. The compounds 1–71 were first dissolved in a small amount of DMSO and then diluted with 0.22 μm of filtered seawater (FSW) to achieve a range of concentrations from 0.625 to 50 μg/ml. Ten microliters of the compound solution was added to multiwell Petri dishes containing a 1-mL suspension of the microalgae (approximately 12 × 10^4 cells/ml). FSW with DMSO was used as a negative control, and solutions of SeaNine 211 in seawater were used as positive controls. After the plates were incubated for 48 h (16 ± 1 ℃) under continuous light, the FSW with non-attached microalgae was removed. The amount of chlorophyll a in attached microalgae was determined with a spectrophotometer (Beckman, model DU650, USA). Then the EC50 (inhibits 50% of settlement of cyprids in comparison with the control) was calculated using the Probit software program.

C. socialis = experiment: as above; format: cell-based, Chaetoceros socialis; conditions: 48 h, read-out: EC50 C. socialis
Description: as §1

N. exigua = experiment: as above; format: cell-based, Navicula exigua
Description: as §1

P. tricornutum Bohlin = experiment: as above; format: cell-based, Phaeodactylum tricornutum Bohlin; conditions: 48 h, read-out: EC50 P. tricornutum
Description: as §1

C. vulgaris = experiment: as above; format: cell-based, Chlorella vulgaris; conditions: Chlorella vulgaris, 48 h, read-out: EC50 C. vulgaris
Description: as §1

[2] = system: P. tricornutum Bohlin, C. vulgaris, C. socialis, N. laevissima, and N. exigua; experiment: Diatom growth inhibition assay, whole panel; format: cell-based; conditions: Chlorella vulgaris; selective and moderate activities; read-out: EC50 antialgal, range over compounds and algae
Description: as §1

zebrafish embryos = experiment: Zebrafish embryo toxicity test; format: in vivo; conditions: 50 μmol/L, after 24 h
Description: Toxicity assays were carried out using the method of Wang et al. ([2011]). Briefly, the normal embryos were selected and transferred into a 24-well plate. The embryos at 1 h postfertilization (hpf) were exposed by immersion in E3 embryo medium containing the derivative in a 1% (v/v) DMSO final solvent concentration in a 24-well plate. The developmental phenotypes of the experimental status of the embryos were observed every 24 h for 72 h and were photographed with a charge-coupled device (CCD) camera.

[3] = Sellaphora laevissima, chlorophyll a of attached microalgae
[4] = Chaetoceros socialis, chlorophyll a of attached microalgae
[5] = 48 h, chlorophyll a of attached microalgae, read-out: EC50 N. exigua
[6] = Phaeodactylum tricornutum, chlorophyll a of attached microalgae
[7] = chlorophyll a of attached microalgae
[8] = Erythrocyte, HB3 strain in human erythrocytes, read-out: P. falciparum IC50

Row | Compound | EC50 (N. laevissima; [3]) | EC50 (C. socialis; [4]) | EC50 (N. exigua; [5]) | EC50 (P. tricornutum Bohlin; [6]) | EC50 [2] | EC50 (C. vulgaris; [7]) | also measured
1 | CCN(CC)CCCC(C)Nc1ccnc2cc(Cl)ccc12 (stereo not shown) [Chloroquine, reference compound] | – | – | – | – | – | – | IC50 ([1]; HB3, Erythrocyte, read-out: P. falciparum IC50): 37.9 µM; IC50 ([1]; HB3, read-out: P. falciparum IC50 (positive control, methods)): 0.0329 µM
2 | COc1cc(O)c2c(c1)/C=C/C[C@H](O)[C@H](O)[C@@H](O)/C=C/C[C@H](C)OC2=O [Compound 1, zeaenol] | – | – | – | – | – | – | EC50 (N. laevissima; Sellaphora laevissima): 8.79 µM; EC50 (C. socialis; Chaetoceros socialis): 25.4 µM; EC50 (N. exigua; 48 h, read-out: EC50 N. exigua): 23.9 µM; EC50 (P. tricornutum Bohlin; Phaeodactylum tricornutum): 12.6 µM; EC50 (C. vulgaris): > 10 µM
3 | COc1cc(OC(=O)C(C)(C)C)c2c(c1Cl)C=CCC(O)C(O)C(O)C=CCC(C)OC2=O (stereo not shown) [Compound 3] | > 10 µM | > 10 µM | > 10 µM | 22.3 µM | 11 to 32.5 µM | 30.9 µM | –
4 | COc1cc2c(c(OCc3ccccc3)c1)C(=O)OC(C)CC=CC(O)C(O)C(O)CC=C2 (stereo not shown) [Compound 4] | 13.6 µM | > 10 µM | 11 µM | 21 µM | 11 to 32.5 µM | > 10 µM | –
5 | COc1cc2c(c(OCc3ccccc3Br)c1)C(=O)OC(C)CC=CC(O)C(O)C(O)CC=C2 (stereo not shown) [Compound 9] | < 10 µM | < 10 µM | 19.2 µM | < 10 µM | – | > 10 µM | EC50 (N. laevissima; [7]): 6.67 µM; EC50 (C. socialis; [7]): 9 µM; EC50 (P. tricornutum Bohlin; [7]): 6.99 µM
6 | COc1cc(COc2cc(OC)cc3c2C(=O)OC(C)CC=CC(O)C(O)C(O)CC=C3)cc(OC)c1 (stereo not shown) [Compound 12] | 20 µM | > 10 µM | > 10 µM | 32.5 µM | 11 to 32.5 µM | > 10 µM | –
7 | COc1cc(COc2cc(OC)c(Cl)c3c2C(=O)OC(C)CC=CC(O)C(O)C(O)CC=C3)cc(OC)c1 (stereo not shown) [Compound 13] | 16.9 µM | 24 µM | > 10 µM | 14 µM | 11 to 32.5 µM | > 10 µM | IC50 [1, 8]: 12.6 µM; antiplasmodial activity against P. falciparum (in words) [1]: active
8 | COc1cc2c(c(OCc3ccc4ccccc4c3)c1)C(=O)OC(C)CC=CC(O)C(O)C(O)CC=C2 (stereo not shown) [Compound 14] | 20.4 µM | 17.2 µM | 18.5 µM | > 10 µM | 11 to 32.5 µM | > 10 µM | death of zebrafish embryos (zebrafish embryos): all embryos died
9 | COc1cc2c(c(OCc3cc(F)cc(F)c3)c1)C(=O)OC(C)CC=CC(O)C(O)C(O)CC=C2 (stereo not shown) [Compound 15] | > 10 µM | 15 µM | 18.8 µM | 33.1 µM | 11 to 32.5 µM | > 10 µM | –
10 | COc1cc2c(c(OCc3ccc(Br)cc3F)c1)C(=O)OC(C)CC=CC(O)C(O)C(O)CC=C2 (stereo not shown) [Compound 24] | 22.4 µM | > 10 µM | 10.2 µM | 11.2 µM | 11 to 32.5 µM | > 10 µM | –
11 | CCC(=O)Oc1cc(OC)cc2c1C(=O)OC(C)CC=CC1OC(C)(C)OC1C(O)CC=C2 (stereo not shown) [Compound 30] | – | – | – | – | – | – | IC50 [1, 8]: 12.4 µM; antiplasmodial activity against P. falciparum (in words) [1]: moderate activity
12 | COCC(=O)Oc1cc(OC)cc2c1C(=O)O[C@@H](C)C/C=C/[C@H](O)[C@@H](O)[C@@H](O)C/C=C/2 [Compound 34] | 8.55 µM | > 10 µM | 8.76 µM | 16.2 µM | – | 12.1 µM | antiplasmodial activity against P. falciparum (in words) [1]: moderate activity; EC50 (N. laevissima; [7]): 8.76 µM; EC50 (N. exigua; 48 h, chlorophyll a of attached microalgae; read-out: EC50 N. exigua): 8.55 µM
